This is an account of results in patent US20260325608A1, “PEPTIDES FOR USE IN THE TREATMENT OF SARCOMA” (PHARIS BIOTEC GMBH, priority 2023, published 2026).

No end group written: not given here.

Series [1] relates to childhood sarcomas. The conditions noted are these: in vivo; cited from earlier work.
Series [2] deals with osteosarcoma. The series can be described thus: Compassionate use treatment of an osteosarcoma patient with intranasal peptide (Example 5). It counts as in vivo. The conditions noted are these: three times a day. The procedure:
A patient suffering from osteosarcoma was treated under the terms of compassionate use.
The peptide IVRYTKKVPQVS (SEQ ID NO: 21) was provided in a citrate/bicarbonate buffer (Pharmacopoeia Europaea, Ph. Eur.), in a concentration of 1 mg/mL (1 mg of the peptide in 1 mL of the buffer). This composition was administered intranasally as a nasal spray. The nasal spray was administered three times a day (morning, noon, evening), two strokes into each nasal cavity, for six weeks.
The course of the disease/clinical picture of the patient was monitored via an immune panel measurement, once a week. In blood count measurements, the numbers of erythrocytes, thrombocytes, etc. were determined.

Series [3] can be described thus: Isoelectric point of the peptide. The series is classed as physicochemical.

Regarding `O=P1(N(CCCl)CCCl)NCCCO1` (stereo not shown) [cyclophosphamide], the anti-tumor efficacy result in series [1] is listed as “good anti-tumor efficacy”.
With IVRYTKKVPQVS [SEQ ID NO: 21], the side effects result in series [2] (1 mg/mL nasal spray, six weeks) is recorded as “no side effects were observed”. In series [2] (1 mg/mL nasal spray, six weeks, especially in the area of the spine and the vertebral holes), the “regression of the tumor (MRT measurements)” value is on record as “regression of the tumor”. In addition, the blood picture entry in series [2] (after four weeks of treatment, 1 mg/mL nasal spray in citrate/bicarbonate buffer, two strokes into each nasal cavity) is listed as “normalized”. The pain entry in series [2] (after six weeks of treatment, 1 mg/mL nasal spray, severe pain before start) is “pain-free”. Besides, the “mobility of the patient” value in series [2] (during six weeks of treatment, 1 mg/mL nasal spray, patient was unable to move before start) is recorded as “restored”.
For the molecule “LVRYTKKVPQVSTPTL [ALB408-423, LVRYTKKVPQVSTPTL]”, the “isoelectric point (pI)” value in series [3] amounted to 10.3.
